The supplement of paper PMC11451515

Tested on: P12-Ichikawa
Experiment: cell viability relative to DMSO control; higher = less cytotoxic
Conditions: 48 h
Summary of the method: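 Viability is a per-plate percentage relative to DMSO wells, with cell-free wells as background. CellTiter-Glo One luminescence was read after 48 h at 37°C on 1536-well plates (5 μl) of NOMO1 or SEM (500 cells/well) or P12-Ichikawa (1000 cells/well) leukemia cells. The cells had been adapted for at least four passages in each medium and pin-dosed with library compounds in DMSO from 47 μM to 0.79 nM in 11 threefold steps.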

[1] = HPLM + 10% dialyzed FBS, 0.000781 µM
[2] = HPLM + 10% dialyzed FBS, 0.00234 µM
[3] = HPLM + 10% dialyzed FBS, 0.00702 µM
[4] = HPLM + 10% dialyzed FBS, 0.0211 µM
[5] = HPLM + 10% dialyzed FBS, 0.0632 µM
[6] = HPLM + 10% dialyzed FBS, 0.19 µM
[7] = HPLM + 10% dialyzed FBS, 0.569 µM
[8] = HPLM + 10% dialyzed FBS, 1.71 µM
[9] = HPLM + 10% dialyzed FBS, 5.12 µM
[10] = HPLM + 10% dialyzed FBS, 15.4 µM
[11] = HPLM + 10% dialyzed FBS, 46.1 µM
[12] = RPMI 5 mM glucose + 10% FBS, 0.000781 µM
[13] = RPMI 5 mM glucose + 10% FBS, 0.00234 µM
[14] = RPMI 5 mM glucose + 10% FBS, 0.00702 µM
[15] = RPMI 5 mM glucose + 10% FBS, 0.0632 µM
[16] = RPMI 5 mM glucose + 10% FBS, 0.19 µM
[17] = RPMI 5 mM glucose + 10% FBS, 0.569 µM
[18] = RPMI 5 mM glucose + 10% FBS, 1.71 µM
[19] = RPMI 5 mM glucose + 10% FBS, 5.12 µM
[20] = RPMI 5 mM glucose + 10% FBS, 15.4 µM
[21] = RPMI 5 mM glucose + 10% FBS, 46.1 µM
[22] = RPMI 5 mM glucose + 10% dialyzed FBS, 0.000781 µM
[23] = RPMI 5 mM glucose + 10% dialyzed FBS, 0.00234 µM
[24] = RPMI 5 mM glucose + 10% dialyzed FBS, 0.00702 µM
[25] = RPMI 5 mM glucose + 10% dialyzed FBS, 0.0211 µM
[26] = RPMI 5 mM glucose + 10% dialyzed FBS, 0.0632 µM
[27] = RPMI 5 mM glucose + 10% dialyzed FBS, 0.19 µM
[28] = RPMI 5 mM glucose + 10% dialyzed FBS, 0.569 µM
[29] = RPMI 5 mM glucose + 10% dialyzed FBS, 1.71 µM
[30] = RPMI 5 mM glucose + 10% dialyzed FBS, 5.12 µM
[31] = RPMI 5 mM glucose + 10% dialyzed FBS, 15.4 µM
[32] = RPMI 5 mM glucose + 10% dialyzed FBS, 46.1 µM
[33] = RPMI 5 mM glucose + 10% FBS, 0.0211 µM

SMILES	cell viability [1]	cell viability [2]	cell viability [3]	cell viability [4]	cell viability [5]	cell viability [6]	cell viability [7]	cell viability [8]	cell viability [9]	cell viability [10]	cell viability [11]	cell viability [12]	cell viability [13]	cell viability [14]	cell viability [15]	cell viability [16]	cell viability [17]	cell viability [18]	cell viability [19]	cell viability [20]	cell viability [21]	cell viability [22]	cell viability [23]	cell viability [24]	cell viability [25]	cell viability [26]	cell viability [27]	cell viability [28]	cell viability [29]	cell viability [30]	cell viability [31]	cell viability [32]	cell viability [33]
C=CCc1cccc(/C=N/NC(=O)CN2CCN(Cc3ccccc3)CC2)c1O	120%	115%	119%	118%	116%	117%	117%	106%	97%	64.2%	7.9%	110%	102%	113%	110%	113%	108%	108%	94.5%	52.9%	17.1%	109%	99.7%	109%	114%	109%	101%	112%	102%	87.5%	44.8%	13.5%	
O=C(Cc1ccc(-c2ccc(OCCN3CCOCC3)cc2)cn1)NCc1ccccc1	107%	113%	114%	85.6%	36.1%	17.3%	14%	13.2%	10.3%	9.64%	11.6%	114%	114%	123%	40%	25.9%	15.6%	15.1%	10.4%	8.04%	8.38%	122%	118%	119%	112%	33.3%	35%	22.9%	22.2%	13.6%	11.6%	16.6%	97%
CC1=C(CC(=O)O)c2cc(F)ccc2/C1=C\c1ccc([S+](C)[O-])cc1 (configuration not stated)	121%	110%	116%	123%	124%	117%	116%	109%	108%	106%	101%											121%	120%	127%	125%	112%	122%	109%	108%	111%	111%	105%	
Cc1cnc(C(=O)O)c[n+]1[O-]	115%	120%	112%	115%	112%	116%	114%	119%	111%	107%	105%	122%	128%	124%	120%	127%	125%	127%	116%	119%	100%	121%	130%	123%	111%	117%	123%	120%	108%	115%	109%	102%	126%
CC(O)(C#Cc1ccc2c(c1)N(c1nc(N)ncc1Cl)CC2)c1nccs1 (configuration not stated)	111%	123%	121%	71%	116%	123%	126%	121%	117%	116%	96.8%	107%	118%	123%	127%	115%	121%	127%	126%	115%	74.3%												79.2%
Cn1cc(/C=C2\C(=O)Nc3cccnc32)c2ccccc21	116%	124%	127%	121%	133%	133%	124%	134%	126%	15.5%	16.6%																						
ClC1=CC\2=C(NC(=O)\C(=C2N[C@@H]3CN4CCC3CC4)C5=NC6=C([NH]5)C=CC=C6)C=C1	110%	117%	112%	113%	112%	104%	56.8%	11.9%	8.98%	10.4%	18.9%	102%	120%	113%	122%	55.9%	19.6%	13.1%	11%	9.4%	14.9%	116%	122%	119%	112%	116%	95.8%	45.1%	14%	12.5%	12.4%	16.4%	120%
CNC[C@H](O)c1cccc(O)c1	92%	95.4%	103%	12.5%	107%	102%	108%	116%	111%	105%	109%	84.8%	98.4%	94.8%	101%	109%	103%	109%	99.5%	103%	114%	84.5%	84.4%	89.1%	26.2%	97.9%	99.5%	101%	96.3%	91.2%	105%	98%	15.9%
Nc1cccc2c1CN([C@H]1CCC(=O)NC1=O)C2=O	115%	112%	114%	117%	109%	114%	107%	103%	107%	88.8%	96.7%	109%	124%	118%	124%	113%	116%	99.6%	114%	80.8%	92.7%	112%	114%	105%	107%	107%	107%	97.4%	102%	94.8%	63.3%	80.8%	118%
